Measured values published in the Kinase Knowledgebase extract (Sharma et al. 2016).

Target: MAPK14 (human) (UniProt Q16539)
Experiment: Inhibition of MAPK14 Kinase Activity

Sequence of MAPK14 (human) (Q16539 whole entry, looked up): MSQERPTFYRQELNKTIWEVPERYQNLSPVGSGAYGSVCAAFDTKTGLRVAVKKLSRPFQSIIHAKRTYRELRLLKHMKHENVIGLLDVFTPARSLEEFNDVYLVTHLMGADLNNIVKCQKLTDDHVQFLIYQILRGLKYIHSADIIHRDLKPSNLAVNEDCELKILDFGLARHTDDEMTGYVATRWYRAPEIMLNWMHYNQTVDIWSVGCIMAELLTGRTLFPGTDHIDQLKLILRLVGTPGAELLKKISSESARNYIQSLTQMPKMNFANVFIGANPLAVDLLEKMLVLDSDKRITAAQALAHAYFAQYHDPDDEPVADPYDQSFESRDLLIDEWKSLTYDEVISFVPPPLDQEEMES

Compound | IC50 [nM]
CC[C@@H](C)Nc1ncc(-c2cc(-c3ccccc3C)c3nccn3c2)s1 | 5
CC(C)Nc1ncc(-c2cc(-c3ccccc3F)c3nncn3c2)s1 | 13
CC(C)Nc1cnc(-c2cc(-c3ccccc3)c3nc(CCO)cn3c2)s1 | 38
CC(C)C(C)Nc1ncc(-c2cc(-c3ccccc3Cl)c3nccn3c2)s1 (configuration not stated) | 39
CCOC(=O)c1ccccc1-c1cc(-c2cnc(NC(C)C)s2)cn2ccnc12 | 795
COC(=O)Cc1cn2cc(-c3cn[nH]c3)cc(-c3ccccc3)c2n1 | 924
CC(C)C(C)Nc1ncc(-c2cc(-c3ccccc3)c3nccn3c2)s1 (configuration not stated) | 41.6
Fc1ccccc1-c1nc(-c2cnc(NC3CCOCC3)s2)cn2ccnc12 | 109
CCC(CC)Nc1ncc(-c2cc(-c3cccc(C#N)c3)c3nccn3c2)s1 | 807
CC[C@@H](C)Nc1ncc(-c2cc(-c3ccc(F)cc3F)c3nccn3c2)s1 | 5.7
Cc1ccc(C)c(-c2cc(-c3cnc(NC(C)C)s3)cn3ccnc23)c1 | 1540
CC[C@@H](C)Nc1ncc(-c2cc(-c3ccccc3)c3nc(CC(=O)OC)cn3c2)s1 | 33
CC(C)Nc1ncc(-c2cc(-c3ccccc3)c3nncn3c2)s1 | 581
Cc1ccccc1-c1cc(-c2cnc(NCCN(C)C)s2)cn2ccnc12 | 1780
CC(C)Nc1ncc(-c2cn3ccnc3c(-c3ccccc3)n2)s1 | 60
CNC(=O)c1cn2cc(-c3cnc(NC(C)C)s3)cc(-c3ccccc3)c2n1 | 37

Compound | IC50 [nM]
Cc1c(-c2cc(-c3ccccc3)c3nccn3c2)cnn1-c1ccccc1 | 630
CC(C)Nc1ncc(-c2cc(-c3cccc(C#N)c3)c3nccn3c2)s1 | 926
CC(C)Nc1ncc(-c2cc(-c3cccc(F)c3)c3nncn3c2)s1 | 91
CC(C)Nc1ncc(-c2cc(-c3ccccc3C#N)c3nccn3c2)s1 | 669
CC(C)Nc1ncc(-c2cc(-c3ccc(F)c(Cl)c3)c3nncn3c2)s1 | 604
CCOCC(C)Nc1ncc(-c2cn3ccnc3c(-c3ccccc3F)n2)s1 (configuration not stated) | 40
Cc1cscc1-c1cc(-c2cnc(NC(C)C)s2)cn2ccnc12 | 5.2
CCCCNc1ncc(-c2cc(-c3ccccc3)c3nc(C(=O)OCC)cn3c2)s1 | 40
CC[C@@H](C)Nc1ncc(-c2cc(-c3ccccc3Cl)c3nccn3c2)s1 | 5.9
CC[C@@H](C)Nc1ncc(-c2cc(-c3cscc3C)c3nccn3c2)s1 | 3
CC[C@@H](C)Nc1ncc(-c2cn3ccnc3c(-c3ccccc3F)n2)s1 | 23
Fc1ccc(-c2cc(-c3cnc(NC4CCOCC4)s3)cn3ccnc23)cc1 | 35.8
CCOC(=O)c1cn2cc(-c3cnc(N[C@H](C)CC)s3)cc(-c3ccccc3F)c2n1 | 6
CC[C@@H](C)Nc1ncc(-c2cc(-c3ccccc3F)c3nccn3c2)s1 | 3.4
CC[C@@H](C)Nc1ncc(-c2cn3ccnc3c(-c3ccccc3O)n2)s1 | 809
CC(C)Nc1ncc(-c2cc(-c3ccccc3Cl)c3nncn3c2)s1 | 15
